Measured values: PubChem BioAssay (NCI)
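48-hour exposure; five concentrations; linearly interpolated endpoints. TGI: total growth inhibition.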

Experiments:
XF 498 CNS = assay: DTP human tumour cell line panel, 48 h
RXF-631 renal = assay: DTP human tumour cell line panel, 48 h

Structure (SMILES)	TGI (XF 498 CNS)	TGI (RXF-631 renal)
COc1ccc(-c2cc(=O)c3cc4c(cc3[nH]2)OCO4)cc1	> 100 µM	
COc1cccc2nc3cc(C)c(C)cc3nc12	> 100 µM	> 100 µM
CC(C)C12C=CC(C)(CC1)n1c(=O)c3cc4ccccc4cc3c(=O)n12 (stereo not drawn)	> 100 µM	> 100 µM
CC(C)C1COC(c2cccc(C3=N[C@@H](C(C)C)CO3)n2)=N1 (stereo partly drawn)	> 100 µM	> 100 µM
COC1=CC(=O)c2c(O)c3c(c(O)c2C1=O)C=C(C)OC3O (stereo not drawn)	4.72 µM	
